Assay [1] deals with T1, Thymidylate synthase (Homo sapiens, UniProt P04818). Kind of assay: Compound (4.5 uM) was evaluated for the percent binding to the excess dTMP synthetase (3.9 uM and 7.8 uM sites) enzyme from chick embryo, […] of CH2-H4 folate. This complex was incubated 25 degrees Celsius for 2 hours. The following applies: Gallus gallus; target entry is the homologue from another species.
Target sequence in this assay (P04818 2-313 limits assumed): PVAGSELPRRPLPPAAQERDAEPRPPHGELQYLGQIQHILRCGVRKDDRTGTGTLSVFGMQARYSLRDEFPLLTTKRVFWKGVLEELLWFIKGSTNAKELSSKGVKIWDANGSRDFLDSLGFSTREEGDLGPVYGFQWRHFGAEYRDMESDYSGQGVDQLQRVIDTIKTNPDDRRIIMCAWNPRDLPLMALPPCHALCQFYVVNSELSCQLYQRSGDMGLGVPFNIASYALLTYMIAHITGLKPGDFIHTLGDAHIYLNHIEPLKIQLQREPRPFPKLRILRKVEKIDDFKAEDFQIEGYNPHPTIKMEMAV

In assay [2] the target is T2, Thymidylate synthase (Lactobacillus casei, UniProt P00469).
T2 sequence (P00469 whole entry): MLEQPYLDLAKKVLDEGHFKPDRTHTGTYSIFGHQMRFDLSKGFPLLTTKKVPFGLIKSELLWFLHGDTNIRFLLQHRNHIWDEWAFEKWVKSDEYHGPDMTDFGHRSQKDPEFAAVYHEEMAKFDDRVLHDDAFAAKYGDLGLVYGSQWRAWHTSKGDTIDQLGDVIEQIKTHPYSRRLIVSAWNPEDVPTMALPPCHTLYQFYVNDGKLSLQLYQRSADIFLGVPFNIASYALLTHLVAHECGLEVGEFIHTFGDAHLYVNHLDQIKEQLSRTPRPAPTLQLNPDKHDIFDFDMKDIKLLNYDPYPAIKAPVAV
Kind of assay: The apparent association constant (Ki) with dTMP synthetase enzyme from chick embryo in the absence of CH2-H4 folate was evaluated. Details: species or system Lacticaseibacillus casei.

The target in assay [3] is T1, Thymidylate synthase. Nature of the assay: Compound was evaluated for the dissociation of the radiolabeled N4-HOdCMP by competitive binding to the excess dTMP synthetase; Active. To be noted: Gallus gallus.
Target sequence in this assay (P04818 2-313 limits assumed): as the sequence (P04818 2-313 limits assumed) above
The target in assay [4] is T1, Thymidylate synthase. Kind of assay: Compound was evaluated for time-dependent loss of activity with use of 15 nM of dTMP synthetase enzyme from chick embryo in the presence of […] of CH2-H4 folate at about 20 seconds. The class given is functional. To be noted: Gallus gallus; target entry is the homologue from another species.
Target sequence in this assay (P04818 2-313 limits assumed): as the sequence (P04818 2-313 limits assumed) above
Assay [5] has as its target T1, Thymidylate synthase. Kind of assay: The apparent association constant (Ki) with dTMP synthetase enzyme from chick embryo in the absence of CH2-H4 folate was evaluated using conventional spectrophotometric assay; Active. Further details: species or system Gallus gallus.
Target sequence in this assay (P04818 whole entry): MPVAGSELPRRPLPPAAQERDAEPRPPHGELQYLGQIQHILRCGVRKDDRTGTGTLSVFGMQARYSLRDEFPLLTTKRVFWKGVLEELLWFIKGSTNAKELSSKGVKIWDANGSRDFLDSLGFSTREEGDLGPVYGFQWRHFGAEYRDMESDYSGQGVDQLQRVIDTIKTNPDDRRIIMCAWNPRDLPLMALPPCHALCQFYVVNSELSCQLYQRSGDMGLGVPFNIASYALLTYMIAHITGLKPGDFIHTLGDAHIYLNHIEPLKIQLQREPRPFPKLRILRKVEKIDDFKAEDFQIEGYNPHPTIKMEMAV
Assay [6] deals with T1, Thymidylate synthase. Kind of assay: The apparent association constant (Ki) with dTMP synthetase enzyme from chick embryo in the absence of CH2-H4 folate was evaluated; Active. Further details: species or system Gallus gallus. To be noted: target entry is the homologue from another species.
Target sequence in this assay (P04818 whole entry): as above

Activity calls are given as the source filed them. No cut-off for these calls is given here.

Compound `O=c1nc(NO)ccn1[C@H]1C[C@H](O)[C@@H](COP(=O)(O)O)O1` showed a Binding at Thymidylate synthase [1] of 90%. The Ki at Thymidylate synthase [2] was determined as 8 µM. For the same compound, at Thymidylate synthase [3], the Dissociation result was “Active”. Moreover, the Loss of activity at Thymidylate synthase [4] stood at 50%.

Regarding `O=c1ccn([C@H]2C[C@H](O)[C@@H](COP(=O)(O)O)O2)c(=O)[nH]1` [DEOXYURIDINE MONOPHOSPHATE], the Ki result on Thymidylate synthase [5] is listed as “Active”.

For `Cc1cn([C@H]2C[C@H](O)[C@@H](COP(=O)(O)O)O2)c(=O)[nH]c1=O` [THYMIDINE MONOPHOSPHATE], the Ki entry on Thymidylate synthase [6] was “Active”.

The record behind these values is ChEMBL document CHEMBL1122753, “Interaction of N4-hydroxy-2'-deoxycytidylic acid with thymidylate synthetase” (J Med Chem, 1984).
